Laboratory results published in the supplement of paper PMC10307832.

How the values were obtained:
Assay in all cases: relative viability (nuclei count vs DMSO), 5 days (fraction); higher = more cells survive
Dovitinib + Pictilisib = compound: CN1CCN(c2ccc3nc(-c4c(N)c5c(F)cccc5[nH]c4=O)[nH]c3c2)CC1 [Dovitinib] + CS(=O)(=O)N1CCN(Cc2cc3nc(-c4cccc5[nH]ncc45)nc(N4CCOCC4)c3s2)CC1 [Pictilisib] (partner 1 µM)
Procedure, shortened: (§1)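 A single step with final 0.05% Triton X-100, 1% formaldehyde and 1 ug/ml Hoechst fixed the cells and stained nuclei 5 days after treatment. Lung cancer cell lines in 1536-well plates had been treated by pin tool the day after seeding with one drug alone or a fixed anchor-drug dose plus five library-drug doses (not always all listed) in √10 steps, and nuclei were counted on 4× images. Relative viability is the ratio of nuclei in treated wells to nuclei in vehicle wells, taken as the median of duplicate plates.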

Dovitinib + Palbociclib = compound: CN1CCN(c2ccc3nc(-c4c(N)c5c(F)cccc5[nH]c4=O)[nH]c3c2)CC1 [Dovitinib] + CC(=O)c1c(C)c2cnc(Nc3ccc(N4CCNCC4)cn3)nc2n(C2CCCC2)c1=O [Palbociclib] (partner 0.5 µM)
Procedure, shortened: as §1

Dovitinib + Foretinib = compound: CN1CCN(c2ccc3nc(-c4c(N)c5c(F)cccc5[nH]c4=O)[nH]c3c2)CC1 [Dovitinib] + COc1cc2c(Oc3ccc(NC(=O)C4(C(=O)Nc5ccc(F)cc5)CC4)cc3F)ccnc2cc1OCCCN1CCOCC1 [Foretinib] (partner 0.25 µM)
Procedure, shortened: as §1

Dovitinib + Bortezomib = compound: CN1CCN(c2ccc3nc(-c4c(N)c5c(F)cccc5[nH]c4=O)[nH]c3c2)CC1 [Dovitinib] + CC(C)C[C@H](NC(=O)[C@H](Cc1ccccc1)NC(=O)c1cnccn1)B(O)O [Bortezomib] (partner 0.002 µM)
Procedure, shortened: as §1

NCI-H3122
relative viability (Dovitinib + Pictilisib; first compound 0.02 µM): 0.793
relative viability (Dovitinib + Pictilisib; first compound 0.06325 µM): 0.588
relative viability (Dovitinib + Pictilisib; first compound 0.2 µM): 0.47
relative viability (Dovitinib + Pictilisib; first compound 0.6325 µM): 0.603
relative viability (Dovitinib + Pictilisib; first compound 2 µM): 0.66
relative viability (Dovitinib + Palbociclib; first compound 0.02 µM): 0.226
relative viability (Dovitinib + Palbociclib; first compound 0.06325 µM): 0.173
relative viability (Dovitinib + Palbociclib; first compound 0.2 µM): 0.184
relative viability (Dovitinib + Palbociclib; first compound 0.6325 µM): 0.181
relative viability (Dovitinib + Palbociclib; first compound 2 µM): 0.21
relative viability (Dovitinib + Foretinib; first compound 0.02 µM): 1.06
relative viability (Dovitinib + Foretinib; first compound 0.06325 µM): 0.963
relative viability (Dovitinib + Foretinib; first compound 0.2 µM): 0.875
relative viability (Dovitinib + Foretinib; first compound 0.6325 µM): 0.985
relative viability (Dovitinib + Foretinib; first compound 2 µM): 0.853
relative viability (Dovitinib + Bortezomib; first compound 0.02 µM): 0.984
relative viability (Dovitinib + Bortezomib; first compound 0.06325 µM): 0.977
relative viability (Dovitinib + Bortezomib; first compound 0.2 µM): 1.03
relative viability (Dovitinib + Bortezomib; first compound 0.6325 µM): 1.05
relative viability (Dovitinib + Bortezomib; first compound 2 µM): 1.01

PC-3 [JPC-3]
relative viability (Dovitinib + Pictilisib; first compound 0.02 µM): 0.742
relative viability (Dovitinib + Pictilisib; first compound 0.06325 µM): 0.75
relative viability (Dovitinib + Pictilisib; first compound 0.2 µM): 0.818
relative viability (Dovitinib + Pictilisib; first compound 0.6325 µM): 0.897
relative viability (Dovitinib + Pictilisib; first compound 2 µM): 0.877
relative viability (Dovitinib + Palbociclib; first compound 0.02 µM): 0.518
relative viability (Dovitinib + Palbociclib; first compound 0.06325 µM): 0.58
relative viability (Dovitinib + Palbociclib; first compound 0.2 µM): 0.55
relative viability (Dovitinib + Palbociclib; first compound 0.6325 µM): 0.555
relative viability (Dovitinib + Palbociclib; first compound 2 µM): 0.517
relative viability (Dovitinib + Foretinib; first compound 0.02 µM): 1.08
relative viability (Dovitinib + Foretinib; first compound 0.06325 µM): 1
relative viability (Dovitinib + Foretinib; first compound 0.2 µM): 1.1
relative viability (Dovitinib + Foretinib; first compound 0.6325 µM): 1.01
relative viability (Dovitinib + Foretinib; first compound 2 µM): 1.05
relative viability (Dovitinib + Bortezomib; first compound 0.02 µM): 0.849
relative viability (Dovitinib + Bortezomib; first compound 0.06325 µM): 0.803
relative viability (Dovitinib + Bortezomib; first compound 0.2 µM): 0.899
relative viability (Dovitinib + Bortezomib; first compound 0.6325 µM): 0.872
relative viability (Dovitinib + Bortezomib; first compound 2 µM): 0.88

PC-14
relative viability (Dovitinib + Pictilisib; first compound 0.02 µM): 0.632
relative viability (Dovitinib + Pictilisib; first compound 0.06325 µM): 0.72
relative viability (Dovitinib + Pictilisib; first compound 0.2 µM): 0.685
relative viability (Dovitinib + Pictilisib; first compound 0.6325 µM): 0.691
relative viability (Dovitinib + Pictilisib; first compound 2 µM): 0.543
relative viability (Dovitinib + Palbociclib; first compound 0.02 µM): 0.461
relative viability (Dovitinib + Palbociclib; first compound 0.06325 µM): 0.622
relative viability (Dovitinib + Palbociclib; first compound 0.2 µM): 0.572
relative viability (Dovitinib + Palbociclib; first compound 0.6325 µM): 0.467
relative viability (Dovitinib + Palbociclib; first compound 2 µM): 0.537
relative viability (Dovitinib + Foretinib; first compound 0.02 µM): 0.976
relative viability (Dovitinib + Foretinib; first compound 0.06325 µM): 0.91
relative viability (Dovitinib + Foretinib; first compound 0.2 µM): 0.945
relative viability (Dovitinib + Foretinib; first compound 0.6325 µM): 0.945
relative viability (Dovitinib + Foretinib; first compound 2 µM): 0.914
relative viability (Dovitinib + Bortezomib; first compound 0.02 µM): 0.796
relative viability (Dovitinib + Bortezomib; first compound 0.06325 µM): 0.906
relative viability (Dovitinib + Bortezomib; first compound 0.2 µM): 0.834
relative viability (Dovitinib + Bortezomib; first compound 0.6325 µM): 0.808
relative viability (Dovitinib + Bortezomib; first compound 2 µM): 0.819

RERF-LC-KJ
relative viability (Dovitinib + Pictilisib; first compound 0.02 µM): 0.556
relative viability (Dovitinib + Pictilisib; first compound 0.06325 µM): 0.643
relative viability (Dovitinib + Pictilisib; first compound 0.2 µM): 0.472
relative viability (Dovitinib + Pictilisib; first compound 0.6325 µM): 0.428
relative viability (Dovitinib + Pictilisib; first compound 2 µM): 0.49
relative viability (Dovitinib + Palbociclib; first compound 0.02 µM): 1.09
relative viability (Dovitinib + Palbociclib; first compound 0.06325 µM): 1
relative viability (Dovitinib + Palbociclib; first compound 0.2 µM): 1.08
relative viability (Dovitinib + Palbociclib; first compound 0.6325 µM): 1.1
relative viability (Dovitinib + Palbociclib; first compound 2 µM): 1.01
relative viability (Dovitinib + Foretinib; first compound 0.02 µM): 0.832
relative viability (Dovitinib + Foretinib; first compound 0.06325 µM): 0.905
relative viability (Dovitinib + Foretinib; first compound 0.2 µM): 0.96
relative viability (Dovitinib + Foretinib; first compound 0.6325 µM): 0.886
relative viability (Dovitinib + Foretinib; first compound 2 µM): 0.858
relative viability (Dovitinib + Bortezomib; first compound 0.02 µM): 1.11
relative viability (Dovitinib + Bortezomib; first compound 0.06325 µM): 1.14
relative viability (Dovitinib + Bortezomib; first compound 0.2 µM): 1.14
relative viability (Dovitinib + Bortezomib; first compound 0.6325 µM): 1.06
relative viability (Dovitinib + Bortezomib; first compound 2 µM): 0.997

SK-LU-1
relative viability (Dovitinib + Pictilisib; first compound 0.02 µM): 0.64
relative viability (Dovitinib + Pictilisib; first compound 0.06325 µM): 0.657
relative viability (Dovitinib + Pictilisib; first compound 0.2 µM): 0.513
relative viability (Dovitinib + Pictilisib; first compound 0.6325 µM): 0.73
relative viability (Dovitinib + Pictilisib; first compound 2 µM): 0.576
relative viability (Dovitinib + Palbociclib; first compound 0.02 µM): 0.39
relative viability (Dovitinib + Palbociclib; first compound 0.06325 µM): 0.372
relative viability (Dovitinib + Palbociclib; first compound 0.2 µM): 0.358
relative viability (Dovitinib + Palbociclib; first compound 0.6325 µM): 0.481
relative viability (Dovitinib + Palbociclib; first compound 2 µM): 0.38
relative viability (Dovitinib + Foretinib; first compound 0.02 µM): 0.875
relative viability (Dovitinib + Foretinib; first compound 0.06325 µM): 0.904
relative viability (Dovitinib + Foretinib; first compound 0.2 µM): 0.789
relative viability (Dovitinib + Foretinib; first compound 0.6325 µM): 0.773
relative viability (Dovitinib + Foretinib; first compound 2 µM): 0.845
relative viability (Dovitinib + Bortezomib; first compound 0.02 µM): 0.977
relative viability (Dovitinib + Bortezomib; first compound 0.06325 µM): 0.993
relative viability (Dovitinib + Bortezomib; first compound 0.2 µM): 1.06
relative viability (Dovitinib + Bortezomib; first compound 0.6325 µM): 1.28
relative viability (Dovitinib + Bortezomib; first compound 2 µM): 1.26

SW 1573
relative viability (Dovitinib + Pictilisib; first compound 0.02 µM): 0.487
relative viability (Dovitinib + Pictilisib; first compound 0.06325 µM): 0.545
relative viability (Dovitinib + Pictilisib; first compound 0.2 µM): 0.483
relative viability (Dovitinib + Pictilisib; first compound 0.6325 µM): 0.382
relative viability (Dovitinib + Pictilisib; first compound 2 µM): 0.512
relative viability (Dovitinib + Palbociclib; first compound 0.02 µM): 0.402
relative viability (Dovitinib + Palbociclib; first compound 0.06325 µM): 0.421
relative viability (Dovitinib + Palbociclib; first compound 0.2 µM): 0.435
relative viability (Dovitinib + Palbociclib; first compound 0.6325 µM): 0.348
relative viability (Dovitinib + Palbociclib; first compound 2 µM): 0.386
relative viability (Dovitinib + Foretinib; first compound 0.02 µM): 0.837
relative viability (Dovitinib + Foretinib; first compound 0.06325 µM): 0.913
relative viability (Dovitinib + Foretinib; first compound 0.2 µM): 0.877
relative viability (Dovitinib + Foretinib; first compound 0.6325 µM): 0.88
relative viability (Dovitinib + Foretinib; first compound 2 µM): 0.885
relative viability (Dovitinib + Bortezomib; first compound 0.02 µM): 0.985
relative viability (Dovitinib + Bortezomib; first compound 0.06325 µM): 1.06
relative viability (Dovitinib + Bortezomib; first compound 0.2 µM): 0.997
relative viability (Dovitinib + Bortezomib; first compound 0.6325 µM): 1.08
relative viability (Dovitinib + Bortezomib; first compound 2 µM): 1.03

UMC-11
relative viability (Dovitinib + Pictilisib; first compound 0.02 µM): 0.806
relative viability (Dovitinib + Pictilisib; first compound 0.06325 µM): 0.783
relative viability (Dovitinib + Pictilisib; first compound 0.2 µM): 0.85
relative viability (Dovitinib + Pictilisib; first compound 0.6325 µM): 0.85
relative viability (Dovitinib + Pictilisib; first compound 2 µM): 0.735
relative viability (Dovitinib + Palbociclib; first compound 0.02 µM): 0.334
relative viability (Dovitinib + Palbociclib; first compound 0.06325 µM): 0.34
relative viability (Dovitinib + Palbociclib; first compound 0.2 µM): 0.346
relative viability (Dovitinib + Palbociclib; first compound 0.6325 µM): 0.343
relative viability (Dovitinib + Palbociclib; first compound 2 µM): 0.348
relative viability (Dovitinib + Foretinib; first compound 0.02 µM): 1.05
relative viability (Dovitinib + Foretinib; first compound 0.06325 µM): 1.04
relative viability (Dovitinib + Foretinib; first compound 0.2 µM): 1.01
relative viability (Dovitinib + Foretinib; first compound 0.6325 µM): 1
relative viability (Dovitinib + Foretinib; first compound 2 µM): 1.05
relative viability (Dovitinib + Bortezomib; first compound 0.02 µM): 0.77
relative viability (Dovitinib + Bortezomib; first compound 0.06325 µM): 0.669
relative viability (Dovitinib + Bortezomib; first compound 0.2 µM): 0.881
relative viability (Dovitinib + Bortezomib; first compound 0.6325 µM): 0.81
relative viability (Dovitinib + Bortezomib; first compound 2 µM): 0.668
